According to publication PMC8446315, “Synthesis, biological evaluation, molecular modeling, and structural analysis of new pyrazole and pyrazolone derivatives as N‐formyl peptide receptors agonists” (Chemical Biology & Drug Design, 2021):
Like-named read-outs stand apart in the source and are kept apart here.

Tests used:
healthy human subject = tested on: healthy human subject; set-up: method as in Lind et al., 2019; Stalder et al., 2017; settings: phase I clinical trial, ref Lind et al., 2019, Stalder et al., 2017; cited from earlier work
[1] = tested on: rat model of rheumatoid arthritis; set-up: method as in Crocetti et al., 2020; settings: ref Crocetti et al., 2020; cited from earlier work
FPR2 = molecular target: T1, FPR2 (Homo sapiens, UniProt P25090); assay: Ca2+ mobilization in FPR2-transfected HL60 cells; assay type: cell-based; settings: for efficacy (%) HL60‐FPR2: % of the response induced by 5 nM WKYMVm
T1 construct: expressed in transfected cells
T1 sequence (P25090 1-351): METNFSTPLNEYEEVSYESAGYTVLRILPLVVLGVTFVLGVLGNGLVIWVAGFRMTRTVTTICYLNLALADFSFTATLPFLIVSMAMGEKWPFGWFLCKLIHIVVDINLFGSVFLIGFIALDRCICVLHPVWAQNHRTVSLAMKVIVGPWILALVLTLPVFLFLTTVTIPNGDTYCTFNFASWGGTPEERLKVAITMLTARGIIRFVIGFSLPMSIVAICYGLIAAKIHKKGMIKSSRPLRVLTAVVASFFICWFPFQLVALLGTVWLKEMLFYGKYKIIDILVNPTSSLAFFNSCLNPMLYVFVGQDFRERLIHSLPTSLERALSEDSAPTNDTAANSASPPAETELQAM
Method: (§1) Although stable cell lines are cultured under G418 selection pressure, G418 may affect some assays, so it was removed in the last round of culture before assays were performed.
(§2) Changes in intracellular Ca^2+ were measured with a FlexStation II scanning fluorometer (Molecular Devices). The cells, suspended in Hank's balanced salt solution without Ca^2+ and Mg^2+ but with 10 mM HEPES (HBSS^‐), were loaded with 1.25 μg/ml Fluo‐4 a.m. dye and incubated for 30 min in the dark at 37°C. After dye loading, the cells were washed with HBSS^‐ containing 10 mM HEPES, resuspended in HBSS^+ containing Ca^2+, Mg^2+, and 10 mM HEPES (HBSS^+), and aliquoted into the wells of flat‐bottom, half‐area‐well black microtiter plates (2 × 10^5 cells/well). For evaluation of direct agonist activity, compounds of interest were added from a source plate containing dilutions of test compounds in HBSS^+, and changes in fluorescence were monitored (λex = 485 nm, λem = 538 nm) every 5 s for 240 s at room temperature after automated addition of compounds. Maximum change in fluorescence during the first 3 min, expressed in arbitrary units over baseline, was used to determine a response. […] Curve fitting (5–6 points) and calculation of median effective inhibitory concentrations (IC50) were performed by nonlinear regression analysis of the dose–response curves generated using Prism 7 (GraphPad Software, Inc.).

FPR1 = molecular target: T2, FPR1 (Homo sapiens, UniProt P21462); assay: Ca2+ mobilization in FPR1-transfected HL60 cells; assay type: cell-based; settings: for efficacy (%) HL60‐FPR1: % of the response induced by 5 nM fMLF
T2 construct: expressed in transfected cells
T2 sequence (P21462 1-350): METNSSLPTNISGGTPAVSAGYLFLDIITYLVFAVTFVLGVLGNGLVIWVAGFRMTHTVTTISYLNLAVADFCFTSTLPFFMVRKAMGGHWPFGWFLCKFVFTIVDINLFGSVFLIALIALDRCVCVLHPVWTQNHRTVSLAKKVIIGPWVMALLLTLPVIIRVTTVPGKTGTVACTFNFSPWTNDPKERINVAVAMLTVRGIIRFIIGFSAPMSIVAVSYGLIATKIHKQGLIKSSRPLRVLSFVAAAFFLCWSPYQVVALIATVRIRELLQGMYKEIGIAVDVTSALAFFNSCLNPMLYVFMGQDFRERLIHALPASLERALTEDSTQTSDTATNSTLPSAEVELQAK
Method: as §1, §2

human neutrophils (hPMN) = assay: Ca2+ mobilization in human neutrophils (hPMN); assay type: cell-based; settings: for efficacy (%) hPMN: % of the response induced by 5 nM fMLF; for EC50: Homo sapiens, Neutrophil
Source text: Blood was collected from healthy donors in accordance with a protocol approved by the Institutional Review Board at Montana State University. Neutrophils were purified from the blood using dextran sedimentation, followed by Histopaque 1077 gradient separation and hypotonic lysis of red blood cells. Isolated neutrophils were washed twice and resuspended in HBSS^‐. Neutrophil preparations were routinely >95% pure, as determined by light microscopy, and >98% viable, as determined by trypan blue exclusion.
Changes in intracellular Ca^2+ were measured with a FlexStation II scanning fluorometer (Molecular Devices). The cells, suspended in Hank's balanced salt solution without Ca^2+ and Mg^2+ but with 10 mM HEPES (HBSS^‐), were loaded with 1.25 μg/ml Fluo‐4 a.m. dye and incubated for 30 min in the dark at 37°C. After dye loading, the cells were washed with HBSS^‐ containing 10 mM HEPES, resuspended in HBSS^+ containing Ca^2+, Mg^2+, and 10 mM HEPES (HBSS^+), and aliquoted into the wells of flat‐bottom, half‐area‐well black microtiter plates (2 × 10^5 cells/well). For evaluation of direct agonist activity, compounds of interest were added from a source plate containing dilutions of test compounds in HBSS^+, and changes in fluorescence were monitored (λex = 485 nm, λem = 538 nm) every 5 s for 240 s at room temperature after automated addition of compounds. Maximum change in fluorescence during the first 3 min, expressed in arbitrary units over baseline, was used to determine a response. […] Curve fitting (5–6 points) and calculation of median effective […] were performed by nonlinear regression analysis of the dose–response curves generated using Prism 7 (GraphPad Software, Inc.).

[2] = tested on: animal models of rheumatoid arthritis; set-up: method as in Burli et al., 2006; Odobasic et al., 2018; settings: ref Burli et al., 2006; Odobasic et al., 2018; cited from earlier work
FPR3 = settings: Figure 2, ref Vergelli et al., cited from earlier work
[3] = Ca2+ mobilization, mean of three independent experiments, N.A. = no activity (limits efficacy <20% and EC50 < 50 µM)

SMILES | melting point | EC50 (FPR2) [µM] | efficacy (%) HL60‐FPR2 (FPR2) [%] | efficacy (%) HL60‐FPR1 (FPR1) [%] | efficacy (%) hPMN (human neutrophils (hPMN)) [%] | EC50 (human neutrophils (hPMN)) [µM] | other results
Cc1cccc(-c2oc(C)nc2C(=O)Nc2cnn(Cc3nc(C(C)(F)F)co3)n2)c1 [Act‐389949] | – | – | – | – | – | – | safety and tolerability (healthy human subject): safe and well tolerated
COc1cccc(-c2cc(C#N)c(=O)n(CC(=O)Nc3ccc(Br)cc3)c2C)c1 [Compound 2a] | – | – | – | – | – | – | anti‐inflammatory activity in vivo [1]: anti‐inflammatory activity
COc1cccc(Nc2ccnn2CC(=O)Nc2ccc(Br)cc2)c1 [Compound 4e, N‐(4‐Bromophenyl)‐2‐[5‐(3‐methoxyphenylamino)‐pyrazol‐1‐yl]acetamide] | 140 to 143 °C | 23.4 ± 5.3 | 60 | 85 | 75 | 8.2 ± 2.6 | EC50 (FPR1): 13.2 ± 2.6 µM
COc1cccc(-c2nn(CC(=O)Nc3ccc(Br)cc3)c(C)c2C#N)c1 [Compound 7a, N‐(4‐Bromophenyl)‐2‐[4‐cyano‐3‐(3‐methoxyphenyl)‐5‐methylpyrazol‐1‐yl]acetamide] | – | 6.1 ± 2.2 | 75 | 75 | 80 | 6.5 ± 1.6 | preference for FPR2 (FPR2; FPR2 over FPR1, from EC50 values): threefold; EC50 (FPR1): 18.4 ± 4.3 µM
Nc1cn(-c2ccccc2)n(CC(=O)Nc2ccc(Br)cc2)c1=O [Compound 9b, 2‐(4‐Amino‐5‐oxo‐2‐phenyl‐2,5‐dihydropyrazol‐1‐yl)‐N‐(4‐bromophenyl)acetamide] | 160 to 163 °C | 23.1 ± 6.3 | 50 | – | – | – | EC50 (µM) hPMN (human neutrophils (hPMN); Ca2+ mobilization in human neutrophils, mean of three independent experiments, N.A. = no activity (limits efficacy <20% and EC50 < 50 µM)): inactive
COc1cccc(Nc2cn(-c3ccccc3)n(CC(=O)Nc3ccc(Br)cc3)c2=O)c1 [Compound 10, N‐(4‐Bromophenyl)‐2‐[4‐(3‐methoxyphenylamino)‐5‐oxo‐2‐phenyl‐2,5‐dihydropyrazol‐1‐yl]acetamide] | 163 to 166 °C | – | – | – | – | – | –
CCCCCCn1c(=O)c(-c2cccc(OC)c2)cn1-c1ccccc1 [Compound 13f, Hexyl‐4‐(3‐methoxyphenyl)‐1‐phenyl‐1,2‐dihydropyrazol‐3‐one] | – | 10.5 ± 3.5 | 90 | 35 | 55 | 13.8 ± 4.2 | EC50 (FPR1): 20.2 ± 5.4 µM
Cc1cc(OCC(=O)Nc2ccc(Br)cc2)n[nH]1 [Compound 15, N‐(4‐bromophenyl)‐2‐[(5‐methyl‐1H‐pyrazol‐3‐yl)oxy]acetamide] | – | 25.9 ± 6.4 | 60 | 60 | 55 | 18.6 ± 4.7 | EC50 (FPR1): 9.8 ± 2.7 µM
CC(C)c1c(NC(=O)Nc2ccc(Cl)cc2)c(=O)n(-c2ccccc2)n1C [Cpd43] | – | – | – | – | – | – | profile in animal models of rheumatoid arthritis [2]: excellent profile
COc1cccc(Cc2c(C)c(C)nn(CC(=O)Nc3ccc(Br)cc3)c2=O)c1 [EC3, reference compound] | – | – | 80 | 85 | 150 | – | EC50 (FPR2; [3]): 0.043 ± 0.0016 µM; EC50 (FPR1; [3]): 0.019 ± 0.005 µM; EC50 (FPR3; 2017): 0.04 µM; anti‐inflammatory activity in vivo [1]: anti‐inflammatory activity
COc1cccc(Nc2c(C(C)=O)c(C)nn(CC(=O)Nc3ccc(Br)cc3)c2=O)c1 [EC10, reference compound] | – | – | 60 | 185 | 150 | 0.036 ± 0.007 | EC50 (FPR2; [3]): 0.17 ± 0.038 µM; EC50 (FPR1; [3]): 0.045 ± 0.016 µM; EC50 (FPR3; 2016): 0.21 µM; anti‐inflammatory activity in vivo [1]: anti‐inflammatory activity

Further lines, with some results ahead:

melting point | SMILES | EC50 (FPR2) [µM] | efficacy (%) HL60‐FPR2 (FPR2) [%] | efficacy (%) HL60‐FPR1 (FPR1) [%] | efficacy (%) hPMN (human neutrophils (hPMN)) [%] | EC50 (human neutrophils (hPMN)) [µM] | other results
136 to 139 °C | COc1ccc(Nc2c(C#N)cnn2CC(=O)Nc2ccc(Br)cc2)cc1 [Compound 4b, N‐(4‐Bromophenyl)‐2‐[4‐cyano‐5‐(4‐methoxyphenylamino)pyrazol‐1‐yl]acetamide] | – | – | – | – | – | –
> 300 °C (dec.) | COc1cccc(Nc2c(C)c(-c3ccccc3)nn2CC(=O)Nc2ccc(Br)cc2)c1 [Compound 4c, N‐(4‐Bromophenyl)‐2‐[5‐(3‐methoxyphenylamino)‐4‐methyl‐3‐phenylpyrazol‐1‐yl]acetamide] | – | – | – | – | – | –
212 to 214 °C | COc1ccc(Nc2c(C)c(-c3ccccc3)nn2CC(=O)Nc2ccc(Br)cc2)cc1 [Compound 4d, N‐(4‐Bromophenyl)‐2‐[5‐(4‐methoxyphenylamino)‐4‐methyl‐3‐phenylpyrazol‐1‐yl]acetamide] | – | – | – | – | – | –
136 to 139 °C | O=C(Cn1c(=O)ccn1-c1ccccc1)Nc1ccc(Br)cc1 [Compound 9a, N‐(4‐Bromophenyl)‐2‐(5‐oxo‐2‐phenyl‐2,5‐dihydropyrazol‐1‐yl)acetamide] | – | – | – | – | – | –
